From patent US6384077B1, “Highly purified EPA for treatment of schizophrenia and related disorders” (Laxdale Limited, priority 1999, dated 2002) come the findings set out here.

Holding throughout (type): in vivo, human
Series [1] relates to patients who had schizophrenia. As to the kind of experiment: randomised, placebo-controlled study of ethyl-EPA in clozapine-treated patients with schizophrenia (PANSS, MADRS). The following applies: 1 g or 2 g per day versus placebo, 12 weeks. The source says:
Although the case reports of the effects of ethyl-EPA are convincing and in some cases dramatic, unequivocal proof of its efficacy must come from randomised, placebo-controlled trials. We therefore set up a randomised, placebo-controlled study of EPA in 34 patients who had schizophrenia according to the criteria set out in the American Psychiatric Association's Diagnostic and Statistical Manual of Mental Disorders (4th edition, DSM-IV). All of these patients were being treated with clozapine drugs but all remained seriously ill, with schizophrenic symptoms. Like many schizophrenics, some of the patients were also depressed. All were assessed at baseline and after 12 weeks using the Positive and Negative Symptom Scale for Schizophrenia (PANSS) and the Montgomery-Asberg Depression Rating Scale (MADRS). After giving informed consent, all the patients were randomised on a double blind basis to one of three groups: placebo, or 1 g or 2 g of ethyl-EPA per day in the form of 0.5 g capsules. Placebo and EPA capsules were indistinguishable from one another in appearance. All the patients improved to some degree so all the changes are percentage improvements

Series [2] concerns schizophrenia. As to the kind of experiment: case history: schizophrenia, E-EPA added to clozapine. The following applies: 2 g/day in addition to clozapine 900 mg/day. The text has this: This mechanism is thought to be responsible for their rapid effects on the so-called “positive” symptoms of schizophrenia (such as hallucinations, delusions and thought disorder). […] The D2 blocking action is also responsible for many of the adverse effects of these drugs, which include extrapyramidal movement disorders, excess prolactin secretion, and tardive dyskinesias. Examples of widely used drugs in this class include chlorpromazine, thioridazine, haloperidol, pimozide, flupenthixol and sulpiride.
These may include blockade of one or more of the other dopamine receptors such as D1, D3 or D4, and also usually including blockade of one or more classes of serotonin receptors. […] They may also have actions at other receptors, including histamine, glutamate and acetyl choline receptors.
The patient was treated with clozapine, eventually reaching a maximum dose of 900 mg/day.
E-EPA in a dose of 2 g/day was then administered in addition to clozapine.

For series [3], the system named is depression. Description: case report: depressed person, Hamilton Depression Rating Scale. The following applies: 1 g/day 96% ethyl-EPA, after about 3-4 weeks. The text has this:
Our attention was unexpectedly drawn to the importance of highly purified EPA by our experience with a patient, a depressed women aged 35 years. […] […] […] They continued the EPA-rich oil for a further two months without any further change. […] As a result of this, and of thinking about the evidence relating to the binding of EPA to FACL-4 and presumably to other proteins, we came to the conclusion that it was important for clinical efficacy to administer EPA in a highly purified form for maximum clinical effectiveness.

Series [4] has as its system dementia. As to the kind of experiment: case report: person with dementia. Particulars: 4x0.5 g capsules per day, within four weeks. The source says:
Dementia: A person developed dementia, probably of Alzheimer type but possibly with multi-infarct contributions because of associated cardiovascular disease. As often occurs they also became withdrawn and depressed but, unfortunately, this state was interrupted by irrational and violent outbursts, usually directed at members of their family, but also sometimes against complete strangers. They were tried on two cholinergic drugs: although these produced a small improvement in their cognitive state they did nothing for their depression, irritability and anger. They were tried on a dose of 4×0.5 g capsules of pure ethyl-EPA, two given in the morning and two in the evening. […] Their family also thought their cognition had improved but this is difficult to be certain of because of their improved mood.

For `CC/C=C\C/C=C\C/C=C\C/C=C\C/C=C\CCCC(=O)OCC` [ethyl-EPA], the side effects result in series [1] is recorded as “no reported side effects attributable to the E-EPA”. For the same compound, in series [2], the clozapine-induced hypersalivation entry is “considerably reduced” and the “effect on schizophrenic illness” value is “dramatic within two weeks”. In addition, in series [3], the Hamilton scores entry is listed as “below 6”. The “mood and irritability in dementia” value in series [4] is “remarkable improvement”.
